Several values for one entry are separate records, joined by “and”; a condition that tells them apart may be missing. Identical values can stand only once. Inconclusive results and toxic doses are left out.
Tested on: CD2F1 mice, L1210 leukemia ip, survival T/C
Experiment: NCI In Vivo Anticancer Drug Screen. Data for tumor model L1210 Leukemia (intraperitoneal) in CD2F1 (CDF1) mice
Details: higher = longer survival
Method in brief: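 Ratio T/C, where T is the treated-group value and C the vehicle-dosed control value, from mice implanted with a transplantable tumor.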

[1] = endpoint: mean survival time, dose: 100.0 mg/kg/injection, schedule: Q01DX001 (ip), vehicle: saline with Tween-80
[2] = endpoint: mean survival time, dose: 400.0 mg/kg/injection, schedule: Q01DX001 (ip), vehicle: saline with Tween-80
[3] = endpoint: mean survival time, dose: 100.0 mg/kg/injection, schedule: Q04DX003 (ip), vehicle: saline with Tween-80
[4] = endpoint: mean survival time, dose: 200.0 mg/kg/injection, schedule: Q04DX003 (ip), vehicle: saline with Tween-80
[5] = endpoint: mean survival time, dose: 400.0 mg/kg/injection, schedule: Q04DX003 (ip), vehicle: saline with Tween-80

OCC1OC(n2cnc3cncnc32)C(O)C1O (configuration not stated)
T/C (endpoint: mean survival time, dose: 0.78 mg/kg/injection, schedule: Q01DX009 (ip), vehicle: saline): 94 % of control and 102 % of control | T/C (endpoint: mean survival time, dose: 1.56 mg/kg/injection, schedule: Q01DX009 (ip), vehicle: saline): 106 % of control and 112 % of control | T/C (endpoint: mean survival time, dose: 3.12 mg/kg/injection, schedule: Q01DX009 (ip), vehicle: saline): 103 % of control and 106 % of control | T/C (endpoint: mean survival time, dose: 6.25 mg/kg/injection, schedule: Q01DX009 (ip), vehicle: saline): 118 % of control and 89 % of control | T/C (endpoint: mean survival time, dose: 12.5 mg/kg/injection, schedule: Q01DX009 (ip), vehicle: saline): 106 % of control | T/C (endpoint: mean survival time, dose: 25.0 mg/kg/injection, schedule: Q01DX009 (ip), vehicle: saline): 119 % of control and 101 % of control

CCOP(=O)(C/C(=N\Nc1ccc([N+](=O)[O-])cc1[N+](=O)[O-])c1ccccc1)c1ccccc1 (configuration not stated)
T/C [1]: 90 % of control | T/C (endpoint: mean survival time, dose: 200.0 mg/kg/injection, schedule: Q01DX001 (ip), vehicle: saline with Tween-80): 92 % of control | T/C [2]: 97 % of control

O=C(CCCN1CCC(O)(c2cccc(C(F)(F)F)c2)CC1)c1ccc(F)cc1
T/C (endpoint: mean survival time, dose: 12.5 mg/kg/injection, schedule: Q04DX003 (ip), vehicle: Klucel (hydroxypropylcellulose) (HPC)): 95 % of control | T/C (endpoint: mean survival time, dose: 25.0 mg/kg/injection, schedule: Q04DX003 (ip), vehicle: Klucel (hydroxypropylcellulose) (HPC)): 92 % of control | T/C (endpoint: mean survival time, dose: 50.0 mg/kg/injection, schedule: Q04DX003 (ip), vehicle: Klucel (hydroxypropylcellulose) (HPC)): 98 % of control | T/C (endpoint: mean survival time, dose: 100.0 mg/kg/injection, schedule: Q04DX003 (ip), vehicle: Klucel (hydroxypropylcellulose) (HPC)): 97 % of control

CN(C(=O)N(CCCl)N=O)C1CCCCC1
T/C (endpoint: mean survival time, dose: 16.0 mg/kg/injection, schedule: Q01DX001 (ip), vehicle: saline with Tween-80): 96 % of control | T/C (endpoint: mean survival time, dose: 24.0 mg/kg/injection, schedule: Q01DX001 (ip), vehicle: saline with Tween-80): 98 % of control | T/C (endpoint: mean survival time, dose: 36.0 mg/kg/injection, schedule: Q01DX001 (ip), vehicle: saline with Tween-80): 108 % of control | T/C (endpoint: mean survival time, dose: 54.0 mg/kg/injection, schedule: Q01DX001 (ip), vehicle: saline with Tween-80): 110 % of control | T/C (endpoint: mean survival time, dose: 80.0 mg/kg/injection, schedule: Q01DX001 (ip), vehicle: saline with Tween-80): 123 % of control | T/C (endpoint: mean survival time, dose: 180.0 mg/kg/injection, schedule: Q01DX001 (ip), vehicle: saline with Tween-80): 236 % of control | T/C (endpoint: mean survival time, dose: 268.0 mg/kg/injection, schedule: Q01DX001 (ip), vehicle: saline with Tween-80): 396 % of control | T/C [2]: 353 % of control

CC(=O)OC(C(=O)NC(CC(C)C)C(=O)O)c1ccccc1 (configuration not stated)
T/C [3]: 98 % of control | T/C [4]: 95 % of control | T/C [5]: 103 % of control

Cc1ccc(C)c(C(O)C2CC2)c1 (configuration not stated)
T/C (endpoint: mean survival time, dose: 100.0 mg/kg/injection, schedule: Q01DX009 (ip), vehicle: saline): 96 % of control | T/C (endpoint: mean survival time, dose: 200.0 mg/kg/injection, schedule: Q01DX009 (ip), vehicle: saline): 100 % of control | T/C (endpoint: mean survival time, dose: 400.0 mg/kg/injection, schedule: Q01DX009 (ip), vehicle: saline): 102 % of control

NC1CCC(Br)C2CCCCC12 (configuration not stated)
T/C (endpoint: mean survival time, dose: 5.0 mg/kg/injection, schedule: Q01DX001 (ip), vehicle: saline with Tween-80): 103 % of control | T/C (endpoint: mean survival time, dose: 10.0 mg/kg/injection, schedule: Q01DX001 (ip), vehicle: saline with Tween-80): 103 % of control | T/C (endpoint: mean survival time, dose: 20.0 mg/kg/injection, schedule: Q01DX001 (ip), vehicle: saline with Tween-80): 104 % of control

Cc1cc(N/N=C/c2ccccn2)nc2ccccc12
T/C (endpoint: median survival time, dose: 6.25 mg/kg/injection, schedule: Q01DX009 (ip), vehicle: Klucel (hydroxypropylcellulose) (HPC)): 102 % of control | T/C (endpoint: median survival time, dose: 12.5 mg/kg/injection, schedule: Q01DX009 (ip), vehicle: Klucel (hydroxypropylcellulose) (HPC)): 100 % of control | T/C (endpoint: median survival time, dose: 25.0 mg/kg/injection, schedule: Q01DX009 (ip), vehicle: Klucel (hydroxypropylcellulose) (HPC)): 97 % of control | T/C (endpoint: median survival time, dose: 50.0 mg/kg/injection, schedule: Q01DX009 (ip), vehicle: Klucel (hydroxypropylcellulose) (HPC)): 110 % of control

CCCCCCCCCCCCCCCC(=O)N(CCCN)C(C)(C)CCC(C)(C)N(CCCN)C(=O)CCCCCCCCCCCCCCC
T/C (endpoint: mean survival time, dose: 1.56 mg/kg/injection, schedule: Q01DX009 (ip), vehicle: water): 106 % of control | T/C (endpoint: mean survival time, dose: 3.13 mg/kg/injection, schedule: Q01DX009 (ip), vehicle: water): 98 % of control | T/C (endpoint: mean survival time, dose: 6.25 mg/kg/injection, schedule: Q01DX009 (ip), vehicle: water): 104 % of control | T/C (endpoint: mean survival time, dose: 12.5 mg/kg/injection, schedule: Q01DX009 (ip), vehicle: water): 102 % of control | T/C (endpoint: mean survival time, dose: 25.0 mg/kg/injection, schedule: Q01DX009 (ip), vehicle: water): 89 % of control and 95 % of control

COc1c(/C=C/CO)cc2c(c1OC)OCO2
T/C [3]: 95 % of control | T/C [4]: 102 % of control | T/C [5]: 102 % of control

c1ccc(CC23CN(C4CCCCC4)CC24N(c2ccccc23)C23CN(C5CCCCC5)CC2(Cc2ccccc2)c2ccccc2N43)cc1 (configuration not stated)
T/C [1]: 90 % of control

CCOC12CC3C4=CCOC5CC(=O)N6c7ccccc7C1(CCN2C4)C6C53 (configuration not stated)
T/C (endpoint: mean survival time, dose: 5.0 mg/kg/injection, schedule: Q01DX001 (ip), vehicle: saline): 98 % of control | T/C (endpoint: mean survival time, dose: 10.0 mg/kg/injection, schedule: Q01DX001 (ip), vehicle: saline): 101 % of control | T/C (endpoint: mean survival time, dose: 20.0 mg/kg/injection, schedule: Q01DX001 (ip), vehicle: saline): 95 % of control | T/C (endpoint: mean survival time, dose: 40.0 mg/kg/injection, schedule: Q01DX001 (ip), vehicle: saline): 97 % of control
